Experimental data from ChEMBL document CHEMBL6074646, “Carvacrol-conjugated 3-Hydroxybenzoic Acids: Design, Synthesis, cardioprotective potential against doxorubicin-induced Cardiotoxicity, and ADMET study” (Bioorg Med Chem Lett, 2024).
Active and inactive are the calls of the source. The rule behind the calls is not given here.

What was measured:
H9c2 [1] = experiment: Cytotoxicity against rat H9C2 cells at 10 uM incubated for 48 hrs by cell counting assay; type: toxicity, cell-based; conditions: h9c2, 48 h
H9c2 [2] = experiment: Protection against doxorubicin-induced cardiotoxicity in rat H9c2 cells assessed as increase in cell viability at 10 uM preincubated for 24 hrs followed by doxorubicin stimulation and measured after 24 hrs; type: functional, cell-based; conditions: time 48.0 hrs

Cc1cc(CO)c(C(C)C)cc1OCCOC(=O)c1cccc(O)c1
Activity (H9c2 [1]): Non-toxic | Activity (H9c2 [2]): inactive

O=C(O)c1cccc(O)c1 [3-HYDROXYBENZOIC ACID]
Activity (H9c2 [1]): Non-toxic | Activity (H9c2 [2]): inactive

Cc1ccc(C(C)C)cc1OC(=O)CCCOC(=O)c1cccc(O)c1
Activity (H9c2 [1]): Non-toxic

Cc1cc(CO)c(C(C)C)cc1OC(=O)CCCOC(=O)c1cccc(O)c1
Activity (H9c2 [1]): Non-toxic | Activity (H9c2 [2]): inactive

Cc1cc(CO)c(C(C)C)cc1OC(=O)COC(=O)c1cccc(O)c1
Activity (H9c2 [1]): Non-toxic | Activity (H9c2 [2]): inactive

Cc1cc(CO)c(C(C)C)cc1OCCCCOC(=O)c1cccc(O)c1
Activity (H9c2 [1]): Non-toxic | Activity (H9c2 [2]): inactive

Cc1ccc(C(C)C)cc1O [CARVACROL]
Activity (H9c2 [1]): Non-toxic | Activity (H9c2 [2]): inactive

Cc1cc(CO)c(C(C)C)cc1OCCCOC(=O)c1cccc(O)c1
Activity (H9c2 [1]): Non-toxic | Activity (H9c2 [2]): inactive

Cc1ccc(C(C)C)cc1OCCOC(=O)c1cccc(O)c1
Activity (H9c2 [1]): Non-toxic

Cc1ccc(C(C)C)cc1OCCCCOC(=O)c1cccc(O)c1
Activity (H9c2 [1]): Non-toxic | Activity (H9c2 [2]): Active

Cc1cc(CO)c(C(C)C)cc1OC(=O)CCOC(=O)c1cccc(O)c1
Activity (H9c2 [1]): Non-toxic | Activity (H9c2 [2]): inactive

Cc1ccc(C(C)C)cc1OCCCOC(=O)c1cccc(O)c1
Activity (H9c2 [1]): Non-toxic

Cc1ccc(C(C)C)cc1OC(=O)COC(=O)c1cccc(O)c1
Activity (H9c2 [1]): Non-toxic

Cc1ccc(C(C)C)cc1OC(=O)CCOC(=O)c1cccc(O)c1
Activity (H9c2 [1]): Non-toxic
